# Measured values: PMC6467533 (Chembiochem : a European journal of chemical biology, 2018)
# How the values were obtained:
# Mtb = conditions: cited from earlier work
# Mtx TPP = Mtx TPP (Mycobacterium triplex, UniProt A0A024JUE5); assay: biochemical; parameters: species or system M. triplex
# [1] = test system: M. smegmatis biofilm formation; conditions: cited from earlier work
# Mtb TPP = Mtb TPP (Mycobacterium tuberculosis, UniProt P9WFZ5); type: biochemical
# Mlt TPP = type: biochemical, M. lentiflavum
# M. aurum = conditions: cited from earlier work
# Ag85C = conditions: cited from earlier work
# E. coli TPP = conditions: cited from earlier work
# Sequence of Mtx TPP (A0A024JUE5 1-354): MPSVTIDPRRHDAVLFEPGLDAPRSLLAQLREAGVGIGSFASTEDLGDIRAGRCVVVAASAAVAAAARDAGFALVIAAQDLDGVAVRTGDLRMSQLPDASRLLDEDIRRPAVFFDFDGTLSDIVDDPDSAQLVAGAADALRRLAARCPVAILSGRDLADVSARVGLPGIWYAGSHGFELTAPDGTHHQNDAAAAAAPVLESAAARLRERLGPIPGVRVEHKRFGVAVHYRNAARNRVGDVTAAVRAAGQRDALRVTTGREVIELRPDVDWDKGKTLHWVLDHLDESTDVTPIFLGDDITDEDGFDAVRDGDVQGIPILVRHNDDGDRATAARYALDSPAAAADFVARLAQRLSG
# Sequence of Mtb TPP (P9WFZ5 whole entry, looked up): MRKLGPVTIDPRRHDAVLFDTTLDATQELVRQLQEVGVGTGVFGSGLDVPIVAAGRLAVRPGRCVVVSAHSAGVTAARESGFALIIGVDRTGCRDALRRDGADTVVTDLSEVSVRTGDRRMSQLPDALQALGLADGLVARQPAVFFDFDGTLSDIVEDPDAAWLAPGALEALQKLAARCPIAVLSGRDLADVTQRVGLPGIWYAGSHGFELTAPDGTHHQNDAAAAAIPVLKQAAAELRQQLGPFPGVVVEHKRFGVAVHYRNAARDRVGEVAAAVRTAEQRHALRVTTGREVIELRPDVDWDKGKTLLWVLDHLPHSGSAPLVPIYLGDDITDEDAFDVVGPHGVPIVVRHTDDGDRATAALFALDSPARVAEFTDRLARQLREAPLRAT
smiles,measurement,setting,value
"OC[C@H]1O[C@H](O[C@H]2O[C@H](CBr)[C@@H](O)[C@H](O)[C@H]2O)[C@H](O)[C@@H](O)[C@@H]1O [6-bromo-6-deoxy-α,α’-trehalose]",MIC against Mtb,Mtb,200 µg/mL
"O=P(O)(O)C[C@H]1O[C@H](O[C@H]2O[C@H](CO)[C@@H](O)[C@H](O)[C@H]2O)[C@H](O)[C@@H](O)[C@@H]1O [TMP, 6-Deoxy-6-(phosphonic acid)-α,α’-trehalose]",IC50,Mtx TPP,288 ± 32 µM
"OCC1OC(OC2OC(CF)C(O)C(O)C2O)C(O)C(O)C1O (stereo not drawn) [6-fluoro-6-deoxy-α,α’-trehalose]",MIC against Mtb,Mtb,200 µg/mL
same,"MIC, M. smegmatis biofilm formation",[1],50 to 100 µM
"OC[C@H]1O[C@H](O[C@H]2O[C@H](CC3CO3)[C@@H](O)[C@H](O)[C@H]2O)[C@H](O)[C@@H](O)[C@@H]1O (stereo partly drawn) [Compound 7, 6-deoxy-6-oxiranyl-α,α’-trehalose]",inhibition of Mtb TPP,Mtb TPP,no inhibition
same,inhibition of Mlt TPP,Mlt TPP,no inhibition
same,inhibition of Mtx TPP,Mtx TPP,no inhibition
"O=P(O)(O)CC[C@H]1O[C@H](O[C@H]2O[C@H](CO)[C@@H](O)[C@H](O)[C@H]2O)[C@H](O)[C@@H](O)[C@@H]1O [TEP, 6-Deoxy-6-(methylenephosphonic acid)-α,α’-trehalose]",IC50,Mtx TPP,1960 ± 261 µM
"[N-]=[N+]=NC[C@H]1O[C@H](O[C@H]2O[C@H](CO)[C@@H](O)[C@H](O)[C@H]2O)[C@H](O)[C@@H](O)[C@@H]1O [6-azido-6-deoxy-α,α’-trehalose]","MIC, growth of M. aurum",M. aurum,200 µg/mL
same,"MIC, M. smegmatis biofilm formation",[1],50 to 100 µM
same,inhibition of Ag85C activity,Ag85C,inhibit Ag85C activity
OCC1=C[C@@H](N[C@H]2C[C@H](CO)[C@@H](O[C@H]3O[C@@H](CO)[C@H](O)[C@@H](O)[C@@H]3O)[C@H](O)[C@H]2O)[C@H](O)[C@@H](O)[C@@H]1O [Validamycin A],IC50 against Mtb TPP,Mtb TPP,unexpectedly high
same,IC50 against Mlt TPP,Mlt TPP,unexpectedly high
same,IC50 against Mtx TPP,Mtx TPP,unexpectedly high
same,inhibition of E. coli TPP,E. coli TPP,completely inhibit
"CC1OC(OC2OC(CO)C(O)C(O)C2O)C(O)C(O)C1O (stereo not drawn) [6-deoxy-α,α’-trehalose]","MIC, M. smegmatis biofilm formation",[1],50 to 100 µM
